Test results published in PubChem BioAssay (NCI).
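These data come from cells grown in 96-well plates and exposed to compound for 48 hours at five concentrations. GI50: concentration for 50% inhibition of growth. TGI marks complete inhibition of growth.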 Active and inactive are the calls of the source. No stated cut-off is given here; in the data, active means GI50 below about 0.43 µM; inactive means the rest.

How the values were obtained:
Assay in all cases: growth of human tumour cells (NCI), 48 h
ACHN renal = test system: ACHN renal
HS 578T breast = test system: HS 578T breast
CAKI-1 renal = test system: CAKI-1 renal
COLO 205 colon = test system: COLO 205 colon
NCI-H23 lung = test system: NCI-H23 lung
TK-10 renal = test system: TK-10 renal
SR leukemia = test system: SR leukemia
SNB-75 CNS = test system: SNB-75 CNS
BT-549 breast = test system: BT-549 breast

Row | SMILES | GI50 (ACHN renal) [µM] | TGI (ACHN renal) [µM] | GI50 (HS 578T breast) [µM] | TGI (HS 578T breast) [µM] | GI50 (CAKI-1 renal) [µM] | TGI (CAKI-1 renal) [µM] | GI50 (COLO 205 colon) [µM] | TGI (COLO 205 colon) [µM] | GI50 (NCI-H23 lung) [µM] | TGI (NCI-H23 lung) [µM] | GI50 (TK-10 renal) [µM] | TGI (TK-10 renal) [µM] | GI50 (SR leukemia) [µM] | TGI (SR leukemia) [µM] | TGI (SNB-75 CNS) [µM] | TGI (BT-549 breast) [µM] | GI50 (SNB-75 CNS) [µM] | GI50 (BT-549 breast) [µM] | outcome (COLO 205 colon)
1 | O=C1C(Cl)=C(Nc2cccc(Cl)c2)C(=O)N1Cc1ccccc1 | 14 | 28.8 | 6.34 | 27.5 | 5.06 | 27.7 | 15.7 | > 100 | 5.94 | 23.4 | 13.9 | 32.3 | 2.19 | 29.3 |  |  |  |  | 
2 | Cc1ccc(S(=O)(=O)OC2CCN(C)CC2)cc1 |  | > 100 |  | > 100 |  |  |  | 42.3 |  | > 100 |  | > 100 |  | 49.9 | > 100 | > 100 |  |  | 
3 | CCOC(=O)c1c2c(c(O)c3ccccc3c(O)n(Cc3ccc(OC)cc3)c1C)C(=O)C=CC2=O | > 100 | > 100 | > 100 | > 100 | > 100 | > 100 | > 100 | > 100 | > 100 | > 100 | > 100 | > 100 |  |  | > 100 | > 100 | > 100 | > 100 | 
4 | Cc1ccc(NC(=O)c2cc3cc(N=Nc4ccc(Br)cc4)ccc3oc2=O)cc1 |  | > 100 |  |  |  | > 100 |  | > 100 |  | > 100 |  | > 100 |  | > 100 | > 100 |  |  |  | 
5 | COc1ccccc1NC(=O)c1sc2nc3c(cc2c1N)C(=O)CCC3 | 6.2 | > 100 | 6.77 | > 100 |  |  | 2.03 | > 100 | 16.8 | > 100 |  |  | > 100 | > 100 | 9.42 | > 100 | 2.36 | 4.43 | 
6 | COc1ccc(OC)c(/C=N/NC(=O)Cc2csc3nc(-c4ccc(Br)cc4)cn23)c1 | 16.9 | 34.5 | 11.6 | 45.4 | 12.6 | 34.2 | 35.7 | > 100 | 19.3 | 52.3 | 16.3 | 51.2 |  |  | 65.4 | 33.6 | 23.9 | 12.9 | 
7 | COC(=O)CCC(=O)C(=O)OC | 16300 |  | 26600 | 97100 |  |  |  |  | 27400 | 95700 |  |  | 4360 | 41100 |  | 96200 | 14800 | 26300 | inactive
8 | CC(C)/C=C1\CCC(CN2CCCC2)C1=O (stereo not drawn) |  | 32.2 |  |  |  | 10.2 |  | 18.1 |  | 33.8 |  | 24.7 |  | 8.09 |  |  |  |  | 
9 | COc1ccc(C2CC(=O)c3c(O)cc(O)cc3O2)cc1O (stereo not drawn) |  | > 100 |  |  |  | > 100 |  | > 100 |  | > 100 |  | > 100 |  |  | > 100 |  |  |  | 
10 | O=C1[C@@H]2C(c3ccccc3Br)=NO[C@@H]2C(=O)N1c1ccc(Cc2ccc(N3C(=O)[C@H]4C(c5ccccc5Br)=NO[C@H]4C3=O)cc2)cc1 |  | > 100 |  |  |  | > 100 |  | > 100 |  | > 100 |  | > 100 |  |  | > 100 |  |  |  | 
11 | CS/C(=N\C(=S)N(C)C)N(c1ccccc1)c1nc(=[N+](C)C)ss1 |  | > 100 |  |  |  | 80.2 |  | 7.04 |  | 51.7 |  | > 100 |  | 24.6 | 19.1 |  |  |  | 
12 | Cc1ccccc1NC(=O)C(=O)C(C#N)c1ccc(Cl)cc1 (stereo not drawn) |  | > 100 |  |  |  | > 100 |  | > 100 |  | > 100 |  | > 100 |  |  | > 100 |  |  |  | 
13 | O=C(O)C/C(=C\c1ccco1)C(=O)O |  | > 100 |  |  |  | > 100 |  | > 100 |  | > 100 |  | > 100 |  | > 100 | > 100 | > 100 |  |  | 
14 | CCN(CC)CCOCC[C@H]1CC[C@H]2[C@@H]3[C@H](C)Cc4cc(OS(N)(=O)=O)ccc4[C@H]3CC[C@]12C | 1.95 | 5.33 |  |  | 1.36 | 2.97 | 0.62 | 1.78 | 1.06 | 2.92 | 1.3 | 3.34 | 0.329 | 1.42 | 3.13 | 3.99 | 1.24 | 1.67 | 
15 | COc1ccc(C(=O)c2cc(OC)c(OC)c(OC)c2)cc1 |  | > 91.3 |  |  |  | > 88.1 |  | 3.69 |  | > 100 |  | > 100 |  | 4.49 | 0.988 | > 100 |  |  | 
16 | COc1c(C=O)c2c(c(OC)c1OC)-c1ccc(OC)c(=O)cc1[C@@H](NC(C)=O)CC2 |  | > 100 |  |  |  | > 30.9 |  | 0.574 |  | 3.47 |  | > 100 |  | > 100 | > 100 | > 100 |  |  | 
17 | Nc1ccc2c(c1)C(=O)C(=O)c1c-2nc2ccccn12 | 1.22 | 2.46 |  |  |  |  | 10.8 | 26.6 | 0.576 | 3.05 | 15.3 | 29.3 |  |  | 2.28 | 2.82 | 1.04 | 1.49 | 
18 | Cc1ccc(S(=O)(=O)N[C@H](C(=O)O)c2ccccc2)cc1 |  | > 100 |  |  |  | > 100 |  | > 100 |  | > 100 |  | > 100 |  |  | > 100 |  |  |  | 
19 | CCOC(=O)Nc1cc2nnc(-c3ccccc3)nc2c(N)n1 |  | > 100 |  |  |  | > 100 |  | 40.5 |  | 64.2 |  | > 100 |  | 72.2 | 61.6 |  |  |  | 
20 | F | 3050 | > 6870 |  |  | 3220 | > 6870 | 2830 | > 6870 | 5260 | > 6870 | 3400 | > 6870 | > 6870 | > 6870 | 5570 | > 6870 | 2160 | 3050 | 
